How the values were obtained:
Experiment in all cases: relative viability (nuclei count vs DMSO), 5 days (fraction); higher = more cells survive
Vandetanib + Dasatinib = compound: COc1cc2/c(=N/c3ccc(Br)cc3F)nc[nH]c2cc1OCC1CCN(C)CC1 [Vandetanib] + Cc1nc(Nc2ncc(C(=O)Nc3c(C)cccc3Cl)s2)cc(N2CCN(CCO)CC2)n1 [Dasatinib] (partner 0.075 µM)
Summary of the method: (§1)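 Dosing by pin tool came one day after lung cancer cell lines were seeded in 1536-well plates, using either one drug or a fixed anchor-drug dose plus five library-drug doses (not always all listed) in √10 steps. After 5 days, nuclei were counted on 4× images. Relative viability is treated-well nuclei count divided by vehicle-well nuclei count, and values are medians of duplicate plates.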

Vandetanib + AZD7762 = compound: COc1cc2/c(=N/c3ccc(Br)cc3F)nc[nH]c2cc1OCC1CCN(C)CC1 [Vandetanib] + NC(=O)Nc1cc(-c2cccc(F)c2)sc1C(=O)N[C@H]1CCCNC1 [AZD7762] (partner 0.2 µM)
Summary of the method: as §1

NVP-TAE684 + AZD7762 = compound: COc1cc(N2CCC(N3CCN(C)CC3)CC2)ccc1Nc1ncc(Cl)c(Nc2ccccc2S(=O)(=O)C(C)C)n1 [NVP-TAE684] + NC(=O)Nc1cc(-c2cccc(F)c2)sc1C(=O)N[C@H]1CCCNC1 [AZD7762] (partner 0.2 µM)
Summary of the method: as §1

Vandetanib + Vorinostat = compound: COc1cc2/c(=N/c3ccc(Br)cc3F)nc[nH]c2cc1OCC1CCN(C)CC1 [Vandetanib] + O=C(CCCCCCC(=O)Nc1ccccc1)NO [Vorinostat] (partner 1 µM)
Summary of the method: as §1

| Cell Line | relative viability (Vandetanib + Dasatinib; first compound 0.02 µM) | relative viability (Vandetanib + Dasatinib; first compound 0.06325 µM) | relative viability (Vandetanib + Dasatinib; first compound 0.2 µM) | relative viability (Vandetanib + Dasatinib; first compound 0.6325 µM) | relative viability (Vandetanib + Dasatinib; first compound 2 µM) | relative viability (Vandetanib + AZD7762; first compound 0.02 µM) | relative viability (Vandetanib + AZD7762; first compound 0.06325 µM) | relative viability (Vandetanib + AZD7762; first compound 0.2 µM) | relative viability (Vandetanib + AZD7762; first compound 0.6325 µM) | relative viability (Vandetanib + AZD7762; first compound 2 µM) | relative viability (NVP-TAE684 + AZD7762; first compound 0.2 µM) | relative viability (NVP-TAE684 + AZD7762; first compound 0.6325 µM) | relative viability (NVP-TAE684 + AZD7762; first compound 2 µM) | relative viability (Vandetanib + Vorinostat; first compound 0.02 µM) | relative viability (Vandetanib + Vorinostat; first compound 0.06325 µM) | relative viability (Vandetanib + Vorinostat; first compound 0.2 µM) | relative viability (Vandetanib + Vorinostat; first compound 0.6325 µM) | relative viability (Vandetanib + Vorinostat; first compound 2 µM) |
| --- | --- | --- | --- | --- | --- | --- | --- | --- | --- | --- | --- | --- | --- | --- | --- | --- | --- | --- |
| HCC-15 | 0.583 | 0.572 | 0.632 | 0.639 | 0.606 | 1.29 | 1.04 | 1.18 | 1.33 | 1.15 | 1.11 | 1.36 | 0.806 | 0.832 | 0.796 | 0.782 | 0.89 | 0.816 |
| NCI-H23 | 0.882 | 0.806 | 0.821 | 0.797 | 0.728 | 0.193 | 0.251 | 0.199 | 0.234 | 0.31 | 0.24 | 0.209 | 0.151 | 0.55 | 0.585 | 0.517 | 0.608 | 0.598 |
| LC-2-ad | 0.574 | 0.471 | 0.49 | 0.317 | 0.211 | 0.807 | 0.809 | 0.766 | 0.756 | 0.69 | 0.808 | 0.818 | 0.427 | 0.686 | 0.673 | 0.714 | 0.709 | 0.462 |
| LCLC-97TM1 | 0.801 | 0.848 | 0.807 | 0.865 | 0.786 | 0.185 | 0.306 | 0.299 | 0.261 | 0.139 | 0.283 | 0.2 | 0.194 | 0.711 | 0.755 | 0.719 | 0.559 | 0.755 |

Source: the supplement of paper PMC10307832
